Among the data in patent US9242978B2, “Phenylacetamide compound and pharmaceutical containing same” (KOWA COMPANY, LTD., priority 2012, dated 2016) are selectivity ratio, concentration and activity values, retold here.

Read-outs that look alike come from different tables or passages of the source.

The nature of series [1]: Evaluation of organ selectivity (non-binding drug concentration in liver and pancreas after oral administration). Particulars: C57BL/6j, mouse, liver and pancreas, mice, 150 minutes after administration. The class given is in vivo, normal mice (C57BL/6j mice).
Assay in series [2]: as above
The class given is in vivo, normal mice (C57BL/6j mice). Conditions: C57BL/6j, mouse, mice, 150 minutes after administration. Here is the method: A test compound suspended in 10% (v/v) Gelucire 44/14 (GATTEFOSSE) was orally administered to normal mice (C57BL/6j mice, CLEA Japan, Inc.). The percentages of drugs that had not bound to proteins in the liver and the pancreas, which had been obtained by the in vitro test, were […] the total concentrations of the drugs in the liver and the pancreas obtained 150 minutes after administration of the drugs, so as to calculate the non-binding concentration of the drug in each case. The ratio of the non-binding concentration of the drug in the […] was calculated, and thus, liver selectivity was evaluated. As a comparative compound, PSN-GK1 described in non-patent document 11 (corresponding to Example 94 of patent document 2) was produced according to the method described in patent document 2, and the produced comparative compound was then evaluated in the same manner as described above (in the table, the comparative compound is indicated as PSN-GK1).

The target in series [3] is T1, GST-GK derived from human liver GK (Homo sapiens, UniProt P35557).
T1 construct: made in house; host or cells: Escherichia coli DH5α
T1 sequence (P35557 1-466 isoform P35557-2): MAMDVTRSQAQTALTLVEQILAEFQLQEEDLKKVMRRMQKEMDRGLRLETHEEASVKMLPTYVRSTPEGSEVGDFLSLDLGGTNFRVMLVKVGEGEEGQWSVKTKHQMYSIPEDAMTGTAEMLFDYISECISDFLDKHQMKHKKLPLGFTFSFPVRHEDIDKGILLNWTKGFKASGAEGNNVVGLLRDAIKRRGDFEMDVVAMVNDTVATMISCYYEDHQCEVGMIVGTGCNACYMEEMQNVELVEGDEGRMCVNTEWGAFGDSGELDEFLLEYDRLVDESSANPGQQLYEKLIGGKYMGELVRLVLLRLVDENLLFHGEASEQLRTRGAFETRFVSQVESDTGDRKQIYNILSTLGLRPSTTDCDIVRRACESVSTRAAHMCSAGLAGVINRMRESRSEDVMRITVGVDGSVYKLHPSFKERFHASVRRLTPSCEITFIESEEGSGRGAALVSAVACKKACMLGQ
Description: In vitro GK activating action measurement test. The series is classed as biochemical. Particulars: 10 min; test compound 1 μmol/L, glucose 2.5 mmol/L, 25° C.; read-out: GK activation rate (%). An excerpt:
cDNA (GenBank Accession No. NM_033507, human glucokinase, variant 2) encoding human liver-type GK polypeptide was cloned by performing a polymerase chain reaction (hereinafter referred to as “PCR”) using a human liver cDNA library (Human liver QUICK-Clone cDNA, TAKARA BIO INC.), and the thus cloned cDNA was then introduced into an expression vector (pGEX-3X, GE Healthcare Japan) for glutathione S transferase (hereinafter referred to as GST) fusion proteins. The resulting vector was introduced into Escherichia coli (Competent high DH5α, Toyobo Co., Ltd.), and the transformed Escherichia coli was then cultured at 37° C. Thereafter, Isopropyl β-D-1-thiogalactopyranoside (final concentration: 1 mmol/L, Sigma Aldrich Japan) was added to the culture, and the obtained mixture was then cultured at 30° C. for 3 hours. Thereafter, a cell mass was recovered. The recovered cell mass was subjected to freezing-and-thawing, and the resulting cell mass was then suspended in Triton-X that had been added in a final concentration of 1% to a phosphate buffer, followed by disintegration with an ultrasonic disintegrator. The homogenate was centrifuged at 33,200 rpm at 4° C. for 1 hour. Thereafter, the supernatant was recovered, and a GST-GK fusion protein was then purified using a glutathione column (GSTrap FF, GE Healthcare Japan). The obtained GST-GK fusion protein was divided into some portions each having a small volume, and the thus divided proteins were then preserved at −80° C.
A GK assay was carried out at 25° C. at a final incubation volume of 100 μL using a flat-bottom 96-well assay plate. An assay buffer comprised 25 mmol/L Hepes buffer (pH 7.1), 25 mmol/L KCl, 2.5 mmol/L or 10 mmol/L D-glucose, 5 mmol/L ATP, 1 mmol/L nicotinamide adenine dinucleotide phosphate (abbreviated as NADP), 2 mmol/L MgCl2, 1 mmol/L dithiothreitol (DTT), 2 units/mL glucose-6 phosphate dehydrogenase (G6PDH), and 1 μg/mL GST-GK derived from human liver GK. ATP, G6PDH, and NADP were purchased from Roche Diagnostics. […] The thus mixed solution was preincubated in an incubator in which the temperature was controlled at 25° C. for 15 minutes. Subsequently, the reaction was initiated by adding 10 μL of the GST-GK solution to the reaction mixture, resulting in a final concentration of 0.1 μg/mL. After initiation of the reaction, an increase in the optical concentration at 340 nm (OD340) was monitored with a microplate spectrophotometer (Varsamax, Molecular Devices Japan K. K.) every 10 seconds over an incubation period of 10 minutes. An inclination of the OD340 increase was defined as raw data. The GK activating rate was indicated as a numerical value obtained from the expression: (Inclination of OD340 increase by addition of the test compound)/(inclination of OD340 increase without addition of the test compound). The results of the GK activating rate obtained at a test compound concentration of 1 μmol/L under the condition of a glucose concentration of 2.5 mmol/L are shown in the following table 2.

[4] abbreviates: liver, dose 10 mg/kg, read-out: Non-binding concentration (ng/mL) Liver.
[5] abbreviates: pancreas, dose 10 mg/kg, read-out: Non-binding concentration (ng/mL) Pancreas.

Consider `CNC(=O)N1CC[C@H](C[C@@H](C(=O)Nc2ncc(F)s2)c2ccc(S(=O)(=O)C3CC3)cc2)C1` [Example 2, (S)-3-((R)-2-(4-(cyclopropylsulfonyl)phenyl)-3-((5-fluorothiazol-2-yl)amino)-3-oxopropyl)-N-methylpyrrolidine-1-carboxamide], for which the selectivity ratio at 150 min in series [1] (dose 30 mg/kg) was 41. Besides, the concentration at 150 min stood at 23 ng/mL in series [2] (liver, dose 30 mg/kg, read-out: Non-binding concentration (ng/mL) Liver) and 0.56 ng/mL in series [2] (pancreas, dose 30 mg/kg, read-out: Non-binding concentration (ng/mL) Pancreas).
In the case of `CC(=O)N1CC[C@H](C[C@@H](C(=O)Nc2ncc(F)s2)c2ccc(S(=O)(=O)C3CC3)cc2)C1` [Example 3, (R)-3-((S)-1-acetylpyrrolidin-3-yl)-2-(4-(cyclopropylsulfonyl)phenyl)-N-(5-fluorothiazol-2-yl)propanamide], in series [1] (dose 10 mg/kg), the selectivity ratio at 150 min was 17. Further, the activity at 1 µM in series [3] came to 803%. For the same compound, the concentration at 150 min in series [2] (setting [4]) turned out to be 65 ng/mL; in series [2] (setting [5]), 3.8 ng/mL.
`CCCNC(=O)N1CC[C@H](C[C@@H](C(=O)Nc2ncc(F)s2)c2ccc(S(=O)(=O)C3CC3)cc2)C1` [Example 6, (S)-3-((R)-2-(4-(cyclopropylsulfonyl)phenyl)-3-((5-fluorothiazol-2-yl)amino)-3-oxopropyl)-N-propylpyrrolidine-1-carboxamide]: the activity at 1 µM in series [3] came out at 422%.
`COC(=O)N1CC[C@H](C[C@@H](C(=O)Nc2ncc(F)s2)c2ccc(S(=O)(=O)C3CC3)cc2)C1` [Example 7, (S)-methyl 3-((R)-2-(4-(cyclopropylsulfonyl)phenyl)-3-((5-fluorothiazol-2-yl)amino)-3-oxopropyl)pyrrolidine-1-carboxylate]: the activity at 1 µM in series [3] came out at 828%.
On to `CNC(=S)N1CC[C@H](C[C@@H](C(=O)Nc2ncc(F)s2)c2ccc(S(=O)(=O)C3CC3)cc2)C1` [Example 8, (R)-2-(4-(cyclopropylsulfonyl)phenyl)-N-(5-fluorothiazol-2-yl)-3-((S)-1-(methylcarbamothioyl)pyrrolidin-3-yl)propanamide], for which the activity at 1 µM in series [3] stood at 535%.
Consider `O=C(Nc1ncc(F)s1)[C@H](C[C@H]1CCN(C(=O)NO)C1)c1ccc(S(=O)(=O)C2CC2)cc1` [Example 10, (S)-3-((R)-2-(4-(cyclopropylsulfonyl)phenyl)-3-((5-fluorothiazol-2-yl)amino)-3-oxopropyl)-N-hydroxypyrrolidine-1-carboxamide], for which the activity at 1 µM in series [3] was 602%.
As to `CNC(=O)C(=O)N1CC[C@H](C[C@@H](C(=O)Nc2ncc(F)s2)c2ccc(S(=O)(=O)C3CC3)cc2)C1` [Example 11], in series [3], the activity at 1 µM turned out to be 427%.
With `O=C(Nc1ncc(F)s1)[C@H](C[C@H]1CCN(C(=O)CO)C1)c1ccc(S(=O)(=O)C2CC2)cc1` [Example 13, (R)-2-(4-(cyclopropylsulfonyl)phenyl)-N-(5-fluorothiazol-2-yl)-3-((S)-1-(2-hydroxyacetyl)pyrrolidin-3-yl)propanamide], in series [3], the activity at 1 µM is 443%.
With `CNC(=O)N1CC[C@H](C[C@@H](C(=O)Nc2ncc(OC)s2)c2ccc(S(=O)(=O)C3CC3)cc2)C1` [Example 14, (S)-3-((R)-2-(4-(cyclopropylsulfonyl)phenyl)-3-((5-methoxythiazol-2-yl)amino)-3-oxopropyl)-N-methylpyrrolidine-1-carboxamide], the activity at 1 µM in series [3] stood at 809%.
Consider `CNC(=O)N1CC[C@H](C[C@@H](C(=O)Nc2ncc(Cl)s2)c2ccc(S(=O)(=O)C3CC3)cc2)C1` [Example 15, (S)-3-((R)-3-((5-chlorothiazol-2-yl)amino)-2-(4-(cyclopropylsulfonyl)phenyl)-3-oxopropyl)-N-methylpyrrolidine-1-carboxamide], for which, in series [3], the activity at 1 µM turned out to be 737%.
Same read-out and setting: the result for `CNC(=O)N1CC[C@H](C[C@@H](C(=O)Nc2ncc(C)s2)c2ccc(S(=O)(=O)C3CC3)cc2)C1` [Example 16, (S)-3-((R)-2-(4-(cyclopropylsulfonyl)phenyl)-3-((5-methylthiazol-2-yl)amino)-3-oxopropyl)-N-methylpyrrolidine-1-carboxamide] reads 484%.
As for `CNC(=O)N1CC[C@H](C[C@@H](C(=O)Nc2ccc(C)cn2)c2ccc(S(=O)(=O)C3CC3)cc2)C1` [Example 19, (S)-3-((R)-2-(4-(cyclopropylsulfonyl)phenyl)-3-((5-methylpyridin-2-yl)amino)-3-oxopropyl)-N-methylpyrrolidine-1-carboxamide], in series [1] (dose 10 mg/kg), the selectivity ratio at 150 min was determined as 17. For the same compound, the activity at 1 µM in series [3] turned out to be 437%. The concentration at 150 min came out at 10 ng/mL in series [2] (setting [4]) and 0.58 ng/mL in series [2] (setting [5]).
Turning to `Cc1ccc(NC(=O)[C@H](C[C@H]2CCN(C(N)=O)C2)c2ccc(S(=O)(=O)C3CC3)cc2)nc1` [Example 21, (S)-3-((R)-2-(4-(cyclopropylsulfonyl)phenyl)-3-((5-methylpyridin-2-yl)amino)-3-oxopropyl)pyrrolidine-1-carboxamide], in series [1] (dose 10 mg/kg), the selectivity ratio at 150 min came to 25. The activity at 1 µM in series [3] was 727%. Also, the concentration at 150 min turned out to be 50 ng/mL in series [2] (setting [4]) and 2 ng/mL in series [2] (setting [5]).
Regarding `CC(=O)N1CC[C@H](C[C@@H](C(=O)Nc2ccc(C)cn2)c2ccc(S(=O)(=O)C3CC3)cc2)C1` [Example 23, (R)-3-((S)-1-acetylpyrrolidin-3-yl)-2-(4-(cyclopropylsulfonyl)phenyl)-N-(5-methylpyridin-2-yl)propanamide], the activity at 1 µM in series [3] was 491%. For the same compound, in series [2] (liver and pancreas, dose 3 mg/kg), the selectivity ratio at 150 min turned out to be 9. In addition, the concentration at 150 min in series [2] (liver, dose 3 mg/kg, read-out: Non-binding concentration (ng/mL) Liver) worked out at 3 ng/mL; in series [2] (pancreas, dose 3 mg/kg, read-out: Non-binding concentration (ng/mL) Pancreas), 0.33 ng/mL.
`COc1cnc(NC(=O)[C@H](C[C@H]2CCN(C(C)=O)C2)c2ccc(S(=O)(=O)C3CC3)cc2)s1` [Example 26, (R)-3-((S)-1-acetylpyrrolidin-3-yl)-2-(4-(cyclopropylsulfonyl)phenyl)-N-(5-methoxythiazol-2-yl)propanamide]: the activity at 1 µM in series [3] is 877%.
